The text below walks through data of US20180282279A1, “Pantothenamide Analogues” (Radboud Universitair Medisch Centrum, priority 2014, published 2018).

As a reminder, the IC50 is the concentration that gives 50% inhibition. A higher IC50 goes with weaker potency. One may read the AUC(0-inf) as the area under the concentration-time curve extrapolated to infinity. A high value points to more exposure. Usually Cmax stands for the highest concentration seen after dosing. Broadly, the Tmax is the time at which the peak concentration occurs. As a reminder, the half-life is the time needed for the level to fall by half in the phase considered. The low end stands for fast loss, the high end for slow loss.

The test system of series [1] is Plasmodium berghei strain 676c11 (PbGFP-Luc). Briefly: In vivo rodent malaria model. As to conditions: female Wistar rats, 6 mg/kg orally three times a day, day 5-8. The source says:
Female mice (C57 Black 6, 9-10 weeks of age at the start of the experiment) and female rats (Wistar, 150-200 grams at the beginning of the experiment) were housed under standard conditions and experiments were approved by the institutional ethical committee on animal care and experimentation of Radboud University Medical Centre (Nijmegen).
To test our compounds in an in vivo malaria model we used a well described rodent malaria model (Zuckerman and Yoeli, J Infect Dis. 94, 225-36). First, donor mice were infected by 0.2 ml cryopreserved infected blood stocks containing the transgenic Plasmodium berghei strain 676c11 (PbGFP-Luc). After four days the mice were sacrificed and their blood was collected. The parasitemia in the blood from the mice was calculated as percentage of infected red blood cells (RBC) by Giemsa-stained blood smears. Infected blood was diluted to 5×10^7 parasites per ml and 0.2 ml was i.p. injected in rats (inoculation of 10′ parasites per rat). Treatment with chloroquine (6 mg/kg), CXP18.6-017 (100 mg/kg) and CXP18.6-052 (100 mg/kg) started 5 days post inoculation and where given orally three times a day until day eight. From day 5 blood samples were collected and parasitemia was determined by analysis of Giemsa-stained blood smears. The infection and treatment regimes were well tolerated by the animals.

Series [2] deals with Plasmodium falciparum NF54 parasites. Briefly: P. falciparum asexual blood stage replication assay (SYBR Green). Conditions: NF54, 10% human serum, 72 incubation. In kind it is cell-based. As for the experimental part:
Compounds were tested on their ability to inhibit replication of the human malaria parasite Plasmodium falciparum. To this end, Plasmodium falciparum NF54 parasites were cultured in RPMI1640 medium supplemented with 367 μM hypoxanthine, 25 mM HEPES, 25 mM sodiumbicarbonate and 10% human type A serum in an automated large-scale culture system as described before (Transactions of the Royal Society of Tropical Medicine and Hygiene, 1982. 76: p. 812-818). Compounds were diluted in DMSO and subsequently in culture medium to reach a DMSO concentration of 0.2%. 50 μl of diluted compound was transferred to a black 96 well plate. A culture of P. falciparum strain NF54 malaria parasites was diluted to a parasitaemia of 0.5% and a hematocrit of 3%. 50 μl of this diluted culture was added to each well in the 96 well plate._The outermost wells of the plate were filled with sterile water to prevent evaporation. The established antimalarial dihydroartemisinin (DHA) in DMSO acted as a positive control (MIN signal), and 0.1% DMSO acted as a negative control (MAX signal). The plates were incubated for 72 at 37° C., 3% 02, 5% CO2, 93% N2. Changes in parasite replication relative to the controls were monitored using the DNA-marker SYBR Green as described previously (Antimicrob Agents Chemother 48:1803-6). Data were analyzed by logistic regression using the formula: Y=Bottom+(Top-Bottom)/(1+10̂((Log IC50−X)*HillSlope)) and a least squares method to find the best fit.
Using similar methods, IC50 values were determined for a variety of inverted pantothenamides, as listed in table 1 (see section: ‘Detailed description of the invention’)

In the next series the test system is Staphylococcus aureus. Briefly: Bacterial growth assay and MIC determination, S. aureus. Format: cell-based. Conditions: Staphylococcus aureus, S. aureus, serum −; read-out: MIC. The method, then:
(§1) Strains of Escherichia coli, Staphylococcus aureus and Staphylococcus epidermidis, were grown overnight in 1% Bacto tryptone medium (BD, Sparks, Md.). Streptococcus pyogenes was grown overnight in Bacto Todd Hewitt Broth medium (BD, Sparks, Md.). Cultures were then diluted 1:1,000 in fresh assay medium supplemented with or without 20% fetal bovine serum (FBS; HyClone, Celbio, Logan, Utah) and added to 96-well sterile enzyme-linked immunosorbent assay (ELISA) plates (100 μl per well). The compounds to be tested were diluted in the medium without serum and added to the bacteria (100 μl per well). Plates were incubated at 37° C., and bacterial growth was monitored over time by reading the optical density at 490 nm using a microplate reader (model 450; Bio-Rad Laboratories Inc., Hercules, Calif.). Streptococcus pneumoniae strains were grown to mid-log phase (OD620 of 0.3) and stored in 15% glycerol at […] till further use. Minimal inhibitory concentration (MIC) of antibiotics was determined according to standard procedures. Bacteria were diluted 10-fold in Mueller-Hinton medium (BD, Sparks, Md.) and added to 96-well sterile ELISA plates (150 μl per well). The compounds to be tested were diluted in the medium without serum and added to the bacteria (150 μl per well). Plates were incubated overnight at 37° C. in 5% CO2. The MIC was defined as the lowest concentration of compound at which no growth was visible with the naked eye.

Series [3] relates to Staphylococcus epidermidis. Put plainly: Bacterial growth assay and MIC determination, S. epidermidis. Conditions: for MIC: Staphylococcus epidermidis. In kind it is cell-based. The method, then:
as §1

Another series concerns Streptococcus pyogenes. Put plainly: Bacterial growth assay and MIC determination, S. pyogenes. Format: cell-based. As to conditions: Streptococcus pyogenes; S. pyogenes, serum −; read-out: MIC. As for the experimental part:
as §1

Another series deals with Streptococcus pneumoniae. Put plainly: MIC determination, S. pneumoniae. As to conditions: Streptococcus pneumoniae. In kind it is cell-based. As for the experimental part: Streptococcus pneumoniae strains were grown to mid-log phase (OD620 of 0.3) and stored in 15% glycerol at […] till further use. Minimal inhibitory concentration (MIC) of antibiotics was determined according to standard procedures. Bacteria were diluted 10-fold in Mueller-Hinton medium (BD, Sparks, Md.) and added to 96-well sterile ELISA plates (150 μl per well). The compounds to be tested were diluted in the medium without serum and added to the bacteria (150 μl per well). Plates were incubated overnight at 37° C. in 5% CO2. The MIC was defined as the lowest concentration of compound at which no growth was visible with the naked eye.

A further series deals with Escherichia coli. Put plainly: Bacterial growth assay and MIC determination, E. coli. Format: cell-based. As to conditions: Escherichia coli, serum −, read-out: MIC. The method, then:
as §1

Series [4] in a line: Pharmacokinetic study in rats. In kind it is in vivo. As for the experimental part: To address the question if increased stability would also lead to improved bioavailability in vivo, a pharmacokinetic study was performed. Briefly, the pantothenamides N5-Pan (an antibacterial compound) and CXP18.3-002 (an antimalarial compound), and their corresponding inverted amides CXP18.6-013 and CXP18.6-006 were administered to rats at 50 mg/kg dissolved in saline. Blood samples were collected from 3 rats before the experiment and at 0.25, 0.5, 1, 2, 4, 6, 8, 12 and 24 h. The concentrations of the compounds were analyzed by LC-MS/MS (AB Sciex API-4000 system). Data were analyzed by the Non-compartmental analysis tool of Phoenix WinNonlin (Version 6.3).

Setting [5] is: S. epidermidis, serum −, read-out: MIC.
The mark [6] stands for this setting: S. pneumoniae, serum −, read-out: MIC.
Setting [7] is: rat, blood, 50 mg/kg in saline, oral administration.

Values after ≈ are worked out from the molar mass of the structure shown. Like-named read-outs stand apart in the source and are kept apart here.

For `CCN(CC)CCCC(C)Nc1ccnc2cc(Cl)ccc12` (stereo not shown) [chloroquine, reference compound], the parasitemia result in series [1] is recorded as “reduced parasitemia to nearly undetectable levels within 3 days”.
`CCCCCC(=O)NCCNC(=O)[C@H](O)C(C)(C)CO` [CXP18.6-013] returned an IC50 in series [2] of 0.63 µM. Besides, the MIC in the series with Staphylococcus aureus was 32 µg/mL (≈ 111 µM); in series [3] (setting [5]), 1 µg/mL (≈ 3.47 µM); in series [3] (Table 1, most sensitive species S. epidermidis (SE), read-out: MIC (μg/ml) for most sensitive bacterial species), 1 µg/mL (≈ 3.47 µM); in the series with Streptococcus pyogenes it was 2 µg/mL (≈ 6.94 µM); in the series with Streptococcus pneumoniae (setting [6]) it was 4 µg/mL (≈ 13.9 µM); with Streptococcus pneumoniae (Table 1, S. pneumoniae (SPn), read-out: MIC (μg/ml) for most sensitive bacterial species), 4 µg/mL (≈ 13.9 µM). Besides, the MIC with Escherichia coli was > 256 µg/mL. Besides, the “activity of inverted pantothenamide compared to the parent compound” value in series [3] (S. epidermidis) is listed as “gain of antimicrobial activity”. In addition, the AUC(0-inf) in series [4] (setting [7]) worked out at 11600 ng·h/mL. The molecule further gave a Cmax in series [4] (setting [7]) of 12100 ng/mL. Besides, the Tmax in series [4] (setting [7]) turned out to be 0.33 h. Further, the half-life in series [4] (rat, blood, 50 mg/kg in saline, oral administration, elimination phase) was 5.9 h.
In the case of `CCCCCNC(=O)CCNC(=O)[C@H](O)C(C)(C)CO` [Compound N5-Pan, N-pentylpantothenamide, reference compound], the MIC in the series on Staphylococcus aureus turned out to be 8 µg/mL (≈ 27.7 µM); in series [3] (setting [5]), 32 µg/mL (≈ 111 µM); in the series on Streptococcus pneumoniae (setting [6]) it was 0.25 µg/mL (≈ 0.867 µM); with Escherichia coli, 64 µg/mL (≈ 222 µM). Further, in series [4] (50 mg/kg), the “detection in blood following oral administration” value was “could not or hardly be detected”.
